ChEMBL document CHEMBL1201862, “PubChem BioAssay data set” (2004)
Values joined by “and” are separate entries in the source; they are usually repeats but may differ in a detail not shown here. Equal values may be shown once.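 Briefly, cells in 96-well plates were exposed to five compound concentrations for 48 h, and endpoints were estimated by linear interpolation. GI50 is the concentration that inhibits growth by half.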 Active and inactive are the calls of the source. Cut-off read from the data, not from the text of the source: active = GI50 up to about 1.1 µM and inactive = higher.

What was measured:
Assay in all cases: NCI anticancer screen, dose series, 48 h
[1] = test system: SF-295
[2] = test system: COLO 205
[3] = test system: HCT-116
[4] = test system: OVCAR-3
[5] = test system: SK-MEL-28
[6] = test system: SF-539
[7] = test system: Malme-3M
[8] = test system: NCI-H460
[9] = test system: HCC 2998
[10] = test system: KM12
[11] = test system: SK-MEL-5
[12] = test system: MOLT-4
[13] = test system: UACC-257
[14] = test system: TK-10
[15] = test system: RXF 393

Measured: GI50

OC(c1ccccc1)(c1ccccc1)c1ccccn1
inactive: [1] > 100 µM and 80.5 µM | [2] > 100 µM | [3] > 100 µM | [4] > 100 µM | [5] > 100 µM | [6] > 100 µM | [7] > 100 µM | [8] > 100 µM | [9] > 100 µM | [10] > 100 µM | [11] > 100 µM | [12] > 100 µM | [13] > 100 µM | [14] > 100 µM | [15] > 100 µM

N#CC1(C#N)C2C=CC(c3coc4cccc2c34)C1(C#N)C#N (configuration not stated)
inactive: [1] 19.9 µM | [2] 1.9 µM | [3] 2.49 µM | [4] 15.7 µM | [5] 3.66 µM | [6] 20.2 µM | [7] 7.05 µM | [8] 19.4 µM | [9] 15.2 µM | [10] 18.3 µM | [11] 15.4 µM | [12] 1.67 µM | [13] 10.8 µM | [14] 7.05 µM | [15] 3.91 µM

O=C1OC(O)c2cc3c(cc21)OCO3 (configuration not stated)
inactive: [1] > 100 µM | [2] > 100 µM | [3] > 100 µM | [4] > 100 µM | [5] > 100 µM | [6] > 100 µM | [7] > 100 µM | [8] > 100 µM | [9] > 100 µM | [10] > 100 µM | [11] > 100 µM | [12] > 100 µM | [13] > 100 µM | [14] > 100 µM | [15] > 100 µM

CC1=C(C)C(=O)c2c(cc3c4ccccc4ccn23)C1=O
inactive: [1] > 100 µM | [2] > 100 µM | [3] > 10 µM | [4] > 100 µM | [5] > 100 µM | [6] > 100 µM | [7] > 100 µM | [8] > 100 µM | [10] > 100 µM | [11] > 100 µM | [12] > 100 µM | [13] > 100 µM | [14] > 100 µM | [15] > 100 µM

C/C=C1\Oc2ccc(OC)cc2S1(=O)=O
inactive: [1] > 100 µM | [2] > 100 µM | [3] > 100 µM | [4] > 100 µM | [5] > 100 µM | [7] > 100 µM | [8] > 100 µM | [9] > 100 µM | [10] > 100 µM | [11] > 100 µM | [12] > 100 µM | [13] > 100 µM | [14] > 100 µM | [15] > 100 µM

CCOC(=O)c1cc2c3c(c(O)c(OC)c2s1)N(C(=O)c1cc2c4c(c(O)c(OC)c2s1)N(C(C)=O)CC4)CC3
inactive: [1] 54.3 µM | [2] > 100 µM | [3] > 100 µM | [4] 24.4 µM | [5] > 100 µM | [6] 38.5 µM | [7] 77.8 µM | [8] > 100 µM | [9] > 100 µM | [10] > 100 µM | [11] 85.1 µM | [13] > 100 µM | [14] > 100 µM | [15] 54.1 µM

CC(C)CC1CC2C(=O)N(c3ccccc3)C(=O)C2c2[nH]c3ccccc3c21 (configuration not stated)
inactive: [1] 20.7 µM | [2] 31 µM | [3] 11.4 µM | [4] 13.1 µM | [5] 27 µM | [6] 23.2 µM | [7] 9.73 µM | [8] 29.2 µM | [9] 17.4 µM | [10] 52.7 µM | [11] > 80.9 µM | [12] 17.9 µM | [13] 26.5 µM | [15] 14.6 µM

CC1(C)C(=O)C(O)=CC2C1=CCC1C2(C)C(=O)CC2(C)C(C(C)(O)C(=O)CC(O)C(C)(C)O)C(O)CC12C (configuration not stated)
inactive: [1] 4.67 µM | [2] 3.67 µM | [3] 3.97 µM | [4] 3.28 µM | [5] 2.69 µM | [6] 2.57 µM | [7] 3.54 µM | [8] 3.39 µM | [9] 3.35 µM | [10] 9.14 µM | [11] 2.84 µM | [12] 17.1 µM | [13] 3.52 µM | [14] 2.54 µM | [15] 2.56 µM

C=C(CN(CC(=C)C(=O)c1ccccc1)C(C)(C)C)C(=O)c1ccccc1
inactive: [1] 28.3 µM | [2] 2.65 µM | [3] 13.8 µM | [4] 13.8 µM | [5] 16.5 µM | [6] 16.8 µM | [7] 15.3 µM | [8] 20.6 µM | [9] 19 µM | [10] 13 µM | [11] 16.8 µM | [12] 2.49 µM | [13] 17 µM | [14] 13.8 µM | [15] 5.36 µM

COC1CCC(=C2C(=O)OC(C)(C)OC2=O)N1 (configuration not stated)
inactive: [1] > 100 µM | [2] > 100 µM | [3] > 100 µM | [5] > 100 µM | [6] > 100 µM | [7] > 100 µM | [8] > 100 µM | [9] > 100 µM | [10] > 100 µM | [12] > 100 µM | [13] > 100 µM | [14] > 100 µM | [15] > 100 µM

Cc1cc2c(=O)cc(-c3ccc(O)cc3)oc2c(C(=O)O)c1C
inactive: [1] > 100 µM | [2] > 100 µM | [3] > 100 µM | [4] > 100 µM | [5] > 100 µM | [6] > 100 µM | [7] > 100 µM | [8] > 100 µM | [9] > 100 µM | [10] > 100 µM | [11] > 100 µM | [12] > 100 µM | [13] > 100 µM | [14] > 100 µM

CCN(CC)c1ccc(Cl)c2c1C(O)(C(C)C)C2(C)C (configuration not stated)
inactive: [1] 18.9 µM | [2] 15.2 µM | [3] 14.1 µM | [4] 12.6 µM | [5] 22.4 µM | [6] 19.8 µM | [7] 13.9 µM | [8] 13.4 µM | [9] 14.8 µM | [10] 15.1 µM | [11] 15.4 µM | [12] 16.5 µM | [13] 14.5 µM | [14] 16.6 µM | [15] 16 µM

Nc1nc2c3nc(Nc4ccccc4)sc3nc(=S)n2c2sc(Nc3ccccc3)nc12
inactive: [1] > 100 µM | [2] > 100 µM | [3] > 100 µM | [5] > 100 µM | [6] > 100 µM | [7] 47.4 µM | [9] 22.2 µM | [11] > 100 µM | [13] > 100 µM | [15] > 100 µM

CCOC(=O)C/N=c1\nc(SC)sc2c(C(=O)OCC)nc(Sc3ccccc3)n12
inactive: [2] > 100 µM | [3] 32.1 µM | [4] 30.3 µM | [7] 32.6 µM | [9] 40.1 µM | [10] > 100 µM | [11] > 100 µM | [13] 28.6 µM | [14] 25.9 µM

Cc1c(C(=O)/C=C/C=C/c2ccccc2)[n+]([O-])c2ccccc2[n+]1[O-]
inactive: [1] 29.2 µM | [2] 35 µM | [4] 26.1 µM | [5] 18.9 µM | [6] 40 µM | [7] 28.9 µM | [8] 18.8 µM | [9] 18.9 µM | [10] 16.8 µM | [11] 19.9 µM | [12] 40.5 µM | [13] 28.2 µM | [14] 50.8 µM

Cc1ccc(-c2cc(-c3ccco3)nc(N)n2)o1
inactive: [1] > 100 µM | [2] > 100 µM | [3] > 100 µM | [4] > 100 µM | [5] > 100 µM | [6] > 100 µM | [7] > 100 µM | [8] > 100 µM | [10] > 100 µM | [11] > 100 µM | [12] > 100 µM | [14] > 100 µM | [15] > 100 µM

[O-][S+](Cc1ccccc1)c1nc2ccccc2nc1-c1cccs1 (configuration not stated)
inactive: [1] 24.7 µM | [2] 20 µM | [3] 10.4 µM | [4] 11.2 µM | [5] 11.3 µM | [6] 16.4 µM | [7] 6.18 µM | [8] 20 µM | [9] 12.4 µM | [10] 16 µM | [11] 11.4 µM | [12] 3.53 µM | [13] 13.2 µM | [14] 14.3 µM

CCCCC(C(=O)C(=O)Nc1ccccc1CC)C(=O)C(C)C (configuration not stated)
inactive: [1] > 100 µM | [2] > 100 µM | [3] > 100 µM | [4] > 100 µM | [6] > 100 µM | [7] > 100 µM | [8] > 100 µM | [9] > 100 µM | [10] > 100 µM | [11] > 100 µM | [12] > 100 µM | [13] > 100 µM | [14] > 100 µM

Cc1ccc2c(c1)-c1c3c(nn1C)-c1ccccc1SC3O2 (configuration not stated)
inactive: [1] 83.8 µM | [2] 75.5 µM | [3] 33.7 µM | [4] 85.9 µM | [5] 78.9 µM | [6] > 100 µM | [7] > 100 µM | [8] 65.8 µM | [9] 34 µM | [10] 38.6 µM | [12] 26.1 µM | [13] 50.6 µM | [14] > 100 µM | [15] > 100 µM

CC(C)(C)C1=CC(=C(P(=O)(O)O)P(=O)(O)O)C=C(C(C)(C)C)C1=O
inactive: [1] > 50 µM | [3] > 50 µM | [4] > 50 µM | [5] > 50 µM | [6] > 50 µM | [7] > 50 µM | [8] > 50 µM | [9] > 50 µM | [10] > 50 µM | [11] > 50 µM | [12] > 50 µM | [13] > 50 µM | [14] > 50 µM
